Literature values, collected in patent US20210338678A1, “BIOACTIVE VITAMIN COMBINATIONS” (BioVit, Inc., priority 2020, published 2021).

Tests used:
[1] = patients with type 2 diabetes, 16 weeks of treatment
[2] = tested on: CD8+T lymphocytes and natural killer (NK) cell activity; conditions: vitamin B12-deficient patients
[3] = tested on: H1N1 influenza vaccine response; conditions: mothers supplemented during pregnancy and postpartum
[4] = tested on: acute and chronic pain and inflammation; conditions: mice

Compound: CN(C)C(=N)N=C(N)N [metformin, Metformin]
- homocysteine [1]: modest increase in homocysteine
- levels of folate and vitamin B12 [1]: reduces levels of folate and vitamin B12

Compound: C/C1=C2/[N-][C@H]([C@H](CC(N)=O)[C@@]2(C)CCC(=O)NC[C@@H](C)OP(=O)([O-])O[C@H]2[C@@H](O)[C@@H](n3cnc4cc(C)c(C)cc43)O[C@@H]2CO)[C@]2(C)N=C(/C(C)=C3N=C(/C=C4N=C1[C@@H](CCC(N)=O)C\4(C)C)[C@@H](CCC(N)=O)[C@]\3(C)CC(N)=O)[C@@H](CCC(N)=O)[C@]2(C)CC(N)=O.[CH3-].[Co+3] [methylcobalamin, Methylcobalamin]
- antibody response of the immune system [2]: improves the antibody response of the immune system

Compound: Vitamin B12
- H1N1 influenza vaccine response [3]: improved H1N1 influenza vaccine response in mothers

Compound: cyanocobalamin
- control of acute and chronic neuropathic pain [4]: controlling acute and chronic neuropathic pain
